Assay results as given in US20120046276A1, “Tuberculosis treatment using pleuromutilin derivatives” (priority 2002, published 2012).
In brackets after ≈: the same amount, converted by molar mass. Several values for one entry are separate records, joined by “and”; a condition that tells them apart may be missing. Identical values can stand only once. Like-named read-outs stand apart in the source and are kept apart here.

How the values were obtained:
Assay type in all cases: cell-based
[1] = tested on: Mycobacterium tuberculosis strain 3; experiment: Agar Dilution Test (MIC), strain 3 (Isoniacid R, Rifampicin R, Streptomycin S)
[2] = tested on: Mycobacterium tuberculosis strain 2; experiment: Agar Dilution Test (MIC), strain 2 (Isoniacid S, Rifampicin S, Streptomycin S)
[3] = tested on: Mycobacterium tuberculosis strain 7; experiment: Agar Dilution Test (MIC), strain 7 (Isoniacid R, Rifampicin S, Streptomycin R)
[4] = tested on: Mycobacterium tuberculosis strain 1; experiment: Agar Dilution Test (MIC), strain 1 (Isoniacid S, Rifampicin S, Streptomycin S); conditions: read-out: MIC against Mycobacterium tuberculosis of strain number 1
[5] = tested on: Mycobacterium tuberculosis strain 4; experiment: Agar Dilution Test (MIC), strain 4 (Isoniacid R, Rifampicin R, Streptomycin R)
[6] = tested on: Mycobacterium tuberculosis strain 6; experiment: Agar Dilution Test (MIC), strain 6 (Isoniacid S, Rifampicin S, Streptomycin S)
[7] = tested on: Mycobacterium tuberculosis strain 12; experiment: Agar Dilution Test (MIC), strain 12 (Isoniacid S, Rifampicin S, Streptomycin S)
[8] = tested on: Mycobacterium tuberculosis strain 15 (labor strain 137 kV); experiment: Agar Dilution Test (MIC), strain 15 = labor strain 137 kV (Isoniacid S, Rifampicin S, Streptomycin S)
[9] = tested on: Mycobacterium tuberculosis strain 13; experiment: Agar Dilution Test (MIC), strain 13 (Isoniacid S, Rifampicin S, Streptomycin S)
[10] = tested on: Mycobacterium tuberculosis strain 5; experiment: Agar Dilution Test (MIC), strain 5 (Isoniacid R, Rifampicin R, Streptomycin S)
[11] = tested on: Mycobacterium tuberculosis strain 8; experiment: Agar Dilution Test (MIC), strain 8 (Isoniacid S, Rifampicin R, Streptomycin S)
[12] = tested on: Mycobacterium tuberculosis strain 11; experiment: Agar Dilution Test (MIC), strain 11 (Isoniacid S, Rifampicin S, Streptomycin S)
[13] = tested on: Mycobacterium tuberculosis strain 14; experiment: Agar Dilution Test (MIC), strain 14 (Isoniacid S, Rifampicin S, Streptomycin S)
[14] = tested on: Mycobacterium tuberculosis strain 10; experiment: Agar Dilution Test (MIC), strain 10 (Isoniacid S, Rifampicin S, Streptomycin S)
[15] = Mycobacterium tuberculosis, 1, 504 h
[16] = Mycobacterium tuberculosis, 1, 672 h
[17] = Mycobacterium tuberculosis, 1, 840 h
[18] = Mycobacterium tuberculosis, 1, 336 h
[19] = Mycobacterium tuberculosis, 1, 168 h
[20] = TABLE C; week 4*) tested after 31 days
[21] = TABLE D; week 4*) tested after 31 days

Compound | MIC against Mycobacterium tuberculosis of strain number 3 [1] [µg/mL] | MIC against Mycobacterium tuberculosis of strain number 2 [2] | MIC against Mycobacterium tuberculosis of strain number 7 [3] | MIC [4, 15] [µg/mL] | MIC [4, 16] [µg/mL] | MIC [4, 17] [µg/mL] | MIC against Mycobacterium tuberculosis of strain number 4 [5] | MIC against Mycobacterium tuberculosis of strain number 6 [6] | MIC against Mycobacterium tuberculosis of strain number 12 [7] | MIC against Mycobacterium tuberculosis of strain number 15 [8] | MIC [4, 19] [µg/mL] | also measured
C=C[C@]1(C)C[C@@H](OC(=O)CSc2cccc(NC(=O)C(N)CCCNC(=N)N)c2)[C@]2(C)C(C)CCC3(CCC(=O)C32)[C@@H](C)C1O (stereo partly drawn) [TC-5] | 5 | 5 µg/mL | 5 µg/mL and 10 µg/mL | 1 (≈ 1.56 µM) | 5 (≈ 7.79 µM) | 5 (≈ 7.79 µM) | 5 µg/mL and 10 µg/mL | 5 µg/mL and 10 µg/mL |  |  |  | 
C=C[C@]1(C)C[C@@H](OC(=O)CSc2cccc(NC(=N)N)c2)[C@]2(C)C(C)CCC3(CCC(=O)C32)[C@@H](C)C1O (stereo partly drawn) [TC-6] |  |  |  |  |  |  |  |  | 1 µg/mL | 0.5 µg/mL |  | MIC [4, 18]: 1 µg/mL (≈ 1.89 µM)
C=C[C@]1(C)C[C@@H](OC(=O)CSC(C)(C)C(N)C(=O)N2CCN(C)CC2)[C@]2(C)C(C)CCC3(CCC(=O)C32)[C@@H](C)C1O (stereo partly drawn) [TC-8] |  |  |  |  |  |  |  |  | 32 µg/mL | 32 µg/mL | 2 (≈ 3.38 µM) | 
C=C[C@]1(C)C[C@@H](OC(=O)CSCCN(CC)CC)[C@]2(C)C(C)CC[C@]3(CCC(=O)C32)[C@@H](C)[C@@H]1O (stereo partly drawn) [TC-1, 14-Desoxy-14[(2-diethylaminoethyl)mercaptoacetoxy]mutilin] | 5 | 5 µg/mL | 10 µg/mL and 20 µg/mL | 5 (≈ 10.1 µM) | 5 (≈ 10.1 µM) | 5 (≈ 10.1 µM) | 5 µg/mL and 10 µg/mL | 10 µg/mL |  |  |  | 
C=C[C@]1(C)C[C@@H](OC(=O)CSC2CCNCC2O)[C@]2(C)C(C)CCC3(CCC(=O)C32)[C@@H](C)C1O (stereo partly drawn) [TC-10] |  |  |  |  |  |  |  |  | 16 µg/mL | 4 µg/mL |  | MIC [4, 18]: 2 µg/mL (≈ 4.05 µM)
C=C[C@]1(C)C[C@@H](OC(=O)CSC2CCCN(C(=O)C(N)C(C)C)C2)[C@]2(C)C(C)CCC3(CCC(=O)C32)[C@@H](C)C1O (stereo partly drawn) [TC-4] |  | 5 µg/mL and 4 µg/mL |  | 0.5 (≈ 0.867 µM) | 1 (≈ 1.73 µM) | 1 (≈ 1.73 µM) |  | 5 µg/mL and 4 µg/mL | 4 µg/mL and 2 µg/mL | 4 µg/mL and 2 µg/mL |  | MIC against Mycobacterium tuberculosis of strain number 13 [9]: 4 µg/mL and 2 µg/mL; MIC against Mycobacterium tuberculosis of strain number 5 [10]: 2 µg/mL; MIC against Mycobacterium tuberculosis of strain number 8 [11]: 4 µg/mL and 2 µg/mL; MIC against Mycobacterium tuberculosis of strain number 11 [12]: 2 µg/mL; MIC against Mycobacterium tuberculosis of strain number 14 [13]: 4 µg/mL; MIC against Mycobacterium tuberculosis of strain number 10 [14]: 4 µg/mL and 2 µg/mL
C=C[C@]1(C)C[C@@H](OC(=O)CSC(C)(C)CNC(=O)[C@H](N)C(C)C)[C@]2(C)[C@H](C)CC[C@]3(CCC(=O)[C@H]32)[C@@H](C)[C@@H]1O [TC-2, Valnemulin] |  |  |  | 0.5 (≈ 0.885 µM) | 0.5 (≈ 0.885 µM) | 0.5 (≈ 0.885 µM) | 5 µg/mL and 8 µg/mL | 5 µg/mL and 4 µg/mL | 4 µg/mL | 2 µg/mL |  | MIC against Mycobacterium tuberculosis of strain number 3 [1, 20]: 2 µg/mL; MIC against Mycobacterium tuberculosis of strain number 2 [2, 20]: 4 µg/mL; MIC against Mycobacterium tuberculosis of strain number 13 [9]: 4 µg/mL; MIC against Mycobacterium tuberculosis of strain number 13 [9, 21]: 8 µg/mL; MIC against Mycobacterium tuberculosis of strain number 5 [10]: 2 µg/mL; MIC against Mycobacterium tuberculosis of strain number 5 [10, 20]: 4 µg/mL; MIC against Mycobacterium tuberculosis of strain number 12 [7, 21]: 4 µg/mL; MIC against Mycobacterium tuberculosis of strain number 8 [11]: 4 µg/mL; MIC against Mycobacterium tuberculosis of strain number 8 [11, 20]: 8 µg/mL; MIC against Mycobacterium tuberculosis of strain number 7 [3, 20]: 8 µg/mL; MIC against Mycobacterium tuberculosis of strain number 11 [12]: 2 µg/mL; MIC against Mycobacterium tuberculosis of strain number 11 [12, 21]: 4 µg/mL; MIC ([4]; Mycobacterium tuberculosis, 1, 744 h, TABLE C; week 4*) tested after 31 days): 0.5 µg/mL (≈ 0.885 µM); MIC against Mycobacterium tuberculosis of strain number 4 [5, 20]: 8 µg/mL; MIC against Mycobacterium tuberculosis of strain number 14 [13]: 4 µg/mL; MIC against Mycobacterium tuberculosis of strain number 14 [13, 21]: 4 µg/mL; MIC against Mycobacterium tuberculosis of strain number 6 [6, 20]: 4 µg/mL; MIC against Mycobacterium tuberculosis of strain number 15 [8, 21]: 4 µg/mL; MIC against Mycobacterium tuberculosis of strain number 10 [14]: 4 µg/mL; MIC against Mycobacterium tuberculosis of strain number 10 [14, 21]: 4 µg/mL
C=C[C@]1(C)C[C@@H](OC(=O)CSC2CCCC(=NO)C2)[C@]2(C)C(C)CCC3(CCC(=O)C32)[C@@H](C)C1O (stereo partly drawn) [TC-9] |  |  |  |  |  |  |  |  | 32 µg/mL | 32 µg/mL | 8 (≈ 15.8 µM) | 
C=C[C@]1(C)C[C@@H](OC(=O)CSc2cccc(NC(=O)C3CCCCN3)c2)[C@]2(C)C(C)CCC3(CCC(=O)C32)[C@@H](C)C1O (stereo partly drawn) [TC-3] | 5 | 5 µg/mL | 20 µg/mL | 1 (≈ 1.68 µM) | 1 (≈ 1.68 µM) | 1 (≈ 1.68 µM) |  | 5 µg/mL and 10 µg/mL |  |  |  | 
C=C[C@]1(C)C[C@@H](OC(=O)CSC(C)(C)C(N)C(=O)NC)[C@]2(C)C(C)CCC3(CCC(=O)C32)[C@@H](C)C1O (stereo partly drawn) [TC-7] |  |  |  |  |  |  |  |  | 32 µg/mL | 32 µg/mL | 2 (≈ 3.83 µM) | 
